Patent publication US10570117B2, “Phenylimidazole compound” (Otsuka Pharmaceutical Factory, Inc., priority 2015, dated 2020)
In brackets after ≈: the same amount, converted by molar mass. Read-outs that look alike come from different tables or passages of the source.

Experiments:
[1] = Solubility in gastric juice or intestinal juice model fluid (precipitation method using DMSO); assay type: physicochemical; details: room temperature
Procedure: Solubility in Gastric Juice or Intestinal Juice Model Fluid
Measurement was performed by a precipitation method using DMSO. Specifically, each of the dimethyl sulfoxide (DMSO) solutions of the compounds was individually added to 1st fluid for Disintegration Test of Japanese Pharmacopoeia (pH: 1.2) or 2nd fluid for Disintegration Test of Japanese Pharmacopoeia (pH: 6.8), and the mixtures were stirred by shaking at room temperature for 24 hours. Subsequently, insoluble substances in each mixture were removed by filtration, and the UV absorption of each filtrate was measured. The obtained values were individually applied to the calibration curves of the compounds prepared in advance to calculate the concentrations of the compounds dissolved (μg/mL).

[2] = pH 1.2, simulated gastric fluid, kinetic from dmso stock, 1st fluid for Disintegration Test of Japanese Pharmacopoeia (pH: 1.2), read-out: Solubility (μg/mL) 1st fluid
[3] = pH 6.8, kinetic from dmso stock, 2nd fluid for Disintegration Test of Japanese Pharmacopoeia (pH: 6.8), read-out: Solubility (μg/mL) 2nd fluid

| SMILES | melting point | solubility at 24 h [1, 2] | solubility at 24 h [1, 3] |
| --- | --- | --- | --- |
| COc1cc(-c2c[nH]c(-c3ccc(C)nc3)n2)ccc1OCc1ccc(C(F)(F)F)cn1 [Example 85] | 201 to 203 °C (dec.) | 85.4 µg/mL (≈ 194 µM) | 1 µg/mL (≈ 2.27 µM) |
| COc1cc(-c2c[nH]c(C3CCC(F)(F)CC3)n2)cc(OC)c1OCc1ccc(C(F)(F)F)cn1 [Example 63] | 155 to 168 °C (dec.) | 82.2 µg/mL (≈ 165 µM) | 12.5 µg/mL (≈ 25.1 µM) |
| COc1cc(OCc2cncc(C(F)(F)F)c2)ccc1-c1cnc(-c2ccc(F)nc2)[nH]1 [Example 137] | 210 to 212 °C (dec.) | 39.9 µg/mL (≈ 89.8 µM) | 36.1 µg/mL (≈ 81.2 µM) |
| COc1cc(OCc2ccc(C(F)(F)F)nc2)ccc1-c1c[nH]c(C2CCCCC2)n1 [Example 53] | 62 to 73 °C | > 86 µg/mL | 4.6 µg/mL (≈ 10.7 µM) |
| COc1cc(-c2c[nH]c(C34CC5CC(CC(C5)C3)C4)n2)cc(OC)c1OCc1ccc(C(F)(F)F)cn1 [Example 66] | 144 to 168 °C | 56.9 µg/mL (≈ 111 µM) | 0.9 µg/mL (≈ 1.75 µM) |
| COc1cc(OCc2ccc(Br)cc2F)ccc1-c1c[nH]c(-c2ccc(C)nc2)n1 [Example 86] | 218 to 220 °C (dec.) | 73.5 µg/mL (≈ 157 µM) | < 0.3 µg/mL |
| COc1cc(-c2c[nH]c(C3CCCCC3)n2)cc(OC)c1OCc1ccc(C(F)(F)F)cn1 [Example 76] | 183 to 186 °C | < 8.5 µg/mL | 1 µg/mL (≈ 2.17 µM) |
| COc1cc(-c2c[nH]c(C3CC3)n2)ccc1OCc1ccc(C(F)(F)F)cn1 [Example 82] | 153 to 155 °C | > 78 µg/mL | 41.1 µg/mL (≈ 106 µM) |
| COc1cc(-c2c[nH]c(C3CCCC3)n2)ccc1OCc1ccc(C(F)(F)F)cn1 [Example 78] | 207 to 210 °C | > 83 µg/mL | 20.6 µg/mL (≈ 49.3 µM) |
| COc1cc(OCc2ccc(C(F)(F)F)cn2)ccc1-c1c[nH]c(-c2ccccn2)n1 [Example 88] | 214 to 216 °C | 54.1 µg/mL (≈ 127 µM) | 0.5 µg/mL (≈ 1.17 µM) |
| COc1cc(OCc2ccc(C(F)(F)F)nc2)ccc1-c1cnc(C2CC(F)(F)C2)[nH]1 [Example 4] | 167 to 169 °C | 86.6 µg/mL (≈ 197 µM) | 0.9 µg/mL (≈ 2.05 µM) |
| COc1cc(OCc2ncc(Br)cc2F)ccc1-c1cnc(-c2ccc(Cl)nc2)[nH]1 [Example 105] | 219 to 225 °C | 27.6 µg/mL (≈ 56.4 µM) | < 0.3 µg/mL |
| COc1cc(-c2c[nH]c(C3CCCCC3)n2)ccc1OCc1ccc(C(F)(F)F)cn1 [Example 81] | 135 to 145 °C | 78.7 µg/mL (≈ 182 µM) | 5.8 µg/mL (≈ 13.4 µM) |
| COc1cc(-c2c[nH]c(C3CCC(C(C)(C)C)CC3)n2)ccc1OCc1ccc(C(F)(F)F)cn1 (stereo not drawn) [Example 69] | 159 to 161 °C | 5.3 µg/mL (≈ 10.9 µM) | 1.3 µg/mL (≈ 2.67 µM) |

Now from value to molecule:

| melting point | solubility at 24 h [1, 2] | solubility at 24 h [1, 3] | SMILES |
| --- | --- | --- | --- |
| 193 to 196 °C | 9.7 µg/mL (≈ 19.6 µM) | 2.6 µg/mL (≈ 5.25 µM) | COc1cc(OCc2ccc(C(F)(F)F)nc2)ccc1-c1nc(-c2ccc(Cl)cn2)[nH]c1Cl [Example 228] |
| 168 to 171 °C | > 92 µg/mL | 0.9 µg/mL (≈ 1.96 µM) | COc1cc(OCc2ccc(C(F)(F)F)cn2)ccc1-c1cn(C)c(-c2ccc(F)nc2)n1 [Example 151, 2-fluoro-5-[4-[2-methoxy-4-((5-(trifluoromethyl)pyridin-2-yl)methoxy)phenyl]-1-methyl-1H-imidazol-2-yl]pyridine] |
| 142 to 144 °C | 23.6 µg/mL (≈ 47.9 µM) | < 0.4 µg/mL | COc1cc(OCc2ccc(C(F)(F)F)cn2)ccc1-c1c(Cl)nc(-c2ccc(F)nc2)n1C [Example 312] |
| 195 to 196 °C | 75.6 µg/mL (≈ 135 µM) | < 0.4 µg/mL | COc1cc(OCc2ccc(C(F)(F)F)nc2)c(C)cc1-c1[nH]c(C2CCC(F)(F)CC2)nc1Br [Example 187] |
| 144 to 154 °C | 96 µg/mL (≈ 183 µM) | 4.2 µg/mL (≈ 8.03 µM) | COc1cc(OCc2ncccc2C(F)(F)F)ccc1-c1[nH]c(-c2ccc(F)nc2)nc1Br [Example 275] |
| 172 to 174 °C | > 98 µg/mL | 0.6 µg/mL (≈ 1.23 µM) | COCn1cc(-c2ccc(OCc3ccc(C(F)(F)F)cn3)cc2OC)nc1-c1ccc(F)nc1 [Example 166] |
| 186 to 190 °C | > 95 µg/mL | < 0.3 µg/mL | COc1cc(OCc2ccc(C(F)(F)F)cn2)ccc1-c1cn(C)c(-c2ccc(Cl)nc2)n1 [Example 168] |
| 186 to 193 °C (dec.) | < 8.5 µg/mL | 3.4 µg/mL (≈ 7.1 µM) | COc1cc(OCc2ccc(C(F)(F)F)nc2)ccc1-c1nc(-c2ccc(F)cn2)[nH]c1Cl [Example 226] |
| 130 to 131 °C | > 88 µg/mL | 25.7 µg/mL (≈ 58.7 µM) | COc1cc(OCc2coc(C)n2)ccc1-c1[nH]c(C2CCC(F)(F)CC2)nc1Cl [Example 197] |
